Assays:
human muscle enolase = target: T1, human muscle enolase (Homo sapiens, UniProt P13929); test: Enolase glycation with methylglyoxal: specific activity of enolase (absorbance increase at 240 nm, 2-PGA to PEP); type: biochemical; details: for K(1)i / K(1)0 / K(1)i / K(2)i: K1, without entanglement elements; for K(1)i / K(1)0 / Wi / W0: activity relative to own initial value; for Wi / W0 / Wi / K(2)i: W, with entanglement elements
T1 construct: Enolase was isolated from human muscle tissue using own method; from tissue; host or cells: human muscle tissue
Procedure: Methylglyoxal was chosen as an enolase modifying agent because it is formed in the body mainly as a product of defective glycolysis or in the lipid peroxidation process, as well as a result of disorders of defence systems against carbonyl and oxidative stress. Simultaneously, enolase glycation was performed without exposure to the second entanglement elements 9, 9a of the second and third pair of entanglement elements. The second control was a sample of enolase that was not glycated and not treated with the second entanglement elements 9, 9a of the second and third pair of entanglement elements.
The second entanglement elements 9, 9a of the second and third pair of entanglement elements were aluminium plates, 1 cm by 2 cm in size, which were kept for 30 min at room temperature prior to testing. Enolase was isolated from human muscle tissue using own method (Bednarz-Misa I, Pietkiewicz J, et al., 2009. Adv.Clin.Exp.Med. Vol.18 no.1; p.71-78). The enzyme stock solution was a preparation of 7.5 mM of imidazole-HCl, pH 6.8, in stabilizing buffer, containing 2.5 mM of MgSO4, 50 mM of NaCl, 50% of glycerol (formulation stored at 4°C). The concentration of enolase in the stock solution Ro was 8 mg/ml (87 µM), while the enzyme specific activity was 25 IU/mg. In glycation mixtures, the enzyme concentration was 1 mg/ml (Ro diluted 8x with PBS buffer, pH 7.4).
In the experiment, a standard test buffer of 50 mM imidazole-HCl pH 6.8.3 mM MgSO4, 0.4M KCI and a substrate of 2-PGA (sodium salt) dissolved in H2O - a stock solution R0 at a concentration of 58.5 mM was used. 2-PGA in the enzyme assay was used at a standard concentration of 1 mM.
Protein concentration was determined spectrophotometrically by measuring the absorbance of enolase solution at 280 nm wavelength using quartz cuvettes. In the present system, quartz cuvettes constituted the end tanks 10 made of polar dielectric 5. Enolase activity was determined by monitoring in a Jasco UV-Vis V-530 spectrophotometer within 60 seconds, the increase in absorbance of the test solution at 240 nm wavelength (a measure of reaction product production, PEP). The specific activity of the enzyme was expressed in international units relative to 1 mg of protein (Bednarz-Misa I, Pietkiewicz J, et al., 2009. Adv.Clin.Exp.Med. 18(1);71-78).
Two glycation systems were prepared using a large excess of methylglyoxal in relation to enolase (ratio 1:300 mol:mol) - in accordance with the conditions according to [Pietkiewicz J. et al., 2011, Protein J. 30 (3):149-158]: • a) Substantive test: glycation of enolase treated with second entanglement elements 9, 9a of the second and third pair of entanglement elements.
175 µl of PBS pH 7.4 buffer were placed in the quartz cuvette, 20 µl of enolase stock solution and 5.5 µl of 0.8% aqueous methylglyoxal solution were added. In such a system, the effect of quantum information transmitted from source medium 2 (silicon monocrystal) on the modification of the glycolysis/gluconeogenesis enzyme enolase by methylglyoxal as a reactive glycating agent was studied.
In order to transmit quantum information from the source medium 2, the mixture was subjected for 3 hours to two second entanglement elements 9, 9a of the second and third pair of entanglement elements (which adhered to both sides of the cuvette). The system was kept at room temperature. b) Control test 1: glycation of enolase not treated with second entanglement elements 9, 9a of the second and third pairs of entanglement elements.
The reaction system was prepared as a substantive test (a). Incubation at room temperature occurred at the same time, without contact with the second entanglement elements 9, 9a of the second and third pair of entanglement elements (3 m distance from the substantive test). c) Control test 2: Unmodified enolase, not treated with second entanglement elements 9, 9a of the second and third pair of entanglement elements. […]

enolase = target: T2, enolase (Homo sapiens, UniProt P13929); test: Electrophoresis to detect high molecular weight advanced glycation products (AGE) of enolase; details: 3 h glycation
T2 construct: Enolase was isolated from human muscle tissue using own method; from tissue; host or cells: human muscle tissue
Procedure: The glycation process was interrupted after 3 hours by adding an aqueous solution of lysine at a concentration of 4 mg/ml to methylglyoxal samples (excess lysine bound unreacted methylglyoxal).
In order to detect the presence of high molecular weight products of advanced glycation of enolase (AGE), samples of each mixture were electrophoresized. Electrophoresis conditions according to [Pietkiewicz J. et al., 2011, Protein J. 30 (3):149-158]. 12 ug of protein from the analyzed samples was applied to the gel paths.

[1] = relative to unmodified enolase control K2 at same time, 1 h
[2] = relative to unmodified enolase control K2 at same time, 2 h
[3] = relative to unmodified enolase control K2 at same time, 3 h

T1 sequence (P13929 whole entry): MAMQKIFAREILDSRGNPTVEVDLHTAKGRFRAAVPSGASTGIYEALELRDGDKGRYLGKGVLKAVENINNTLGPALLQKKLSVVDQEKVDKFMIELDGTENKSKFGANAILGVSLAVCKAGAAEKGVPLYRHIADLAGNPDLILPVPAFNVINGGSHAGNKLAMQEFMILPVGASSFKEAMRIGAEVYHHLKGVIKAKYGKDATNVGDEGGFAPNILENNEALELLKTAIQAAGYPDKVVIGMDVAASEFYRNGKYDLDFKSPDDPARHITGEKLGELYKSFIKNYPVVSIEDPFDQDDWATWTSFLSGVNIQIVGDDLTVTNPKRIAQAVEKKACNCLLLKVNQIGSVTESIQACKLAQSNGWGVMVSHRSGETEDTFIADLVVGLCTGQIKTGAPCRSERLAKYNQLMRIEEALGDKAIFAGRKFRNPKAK
T2 sequence (P13929 whole entry): as above

Compound: CC(=O)C=O [methylglyoxal]
- Activity (human muscle enolase; Control test 1 (K1): enolase + methylglyoxal (1:300 mol:mol), without entanglement elements, incubation time 0 h, room temperature): 24.6 IU/mg
- Activity (human muscle enolase; Control test 1 (K1): enolase + methylglyoxal, without entanglement elements, incubation time 1 h): 21.37 IU/mg
- Activity (human muscle enolase; Control test 1 (K1): enolase + methylglyoxal, without entanglement elements, incubation time 2 h): 19.15 IU/mg
- Activity (human muscle enolase; Control test 1 (K1): enolase + methylglyoxal, without entanglement elements, incubation time 3 h): 17.64 IU/mg
- K(1)i / K(1)0 (human muscle enolase; 0 h): 100%
- K(1)i / K(1)0 (human muscle enolase; 1 h): 86.9%
- K(1)i / K(1)0 (human muscle enolase; 2 h): 77.85%
- K(1)i / K(1)0 (human muscle enolase; 3 h): 71.7%
- K(1)i / K(2)i (human muscle enolase; activity relative to unmodified enolase control K2 at same time, 0 h): 99.6%
- K(1)i / K(2)i (human muscle enolase; [1]): 93.8%
- K(1)i / K(2)i (human muscle enolase; [2]): 88.8%
- K(1)i / K(2)i (human muscle enolase; [3]): 90.6%
- Activity (human muscle enolase; Substantive test (W): enolase + methylglyoxal + entanglement elements, incubation time 0 h, room temperature): 29.22 IU/mg
- Activity (human muscle enolase; Substantive test (W): enolase + methylglyoxal + entanglement elements, incubation time 1 h): 25.78 IU/mg
- Activity (human muscle enolase; Substantive test (W): enolase + methylglyoxal + entanglement elements, incubation time 2 h): 24.12 IU/mg
- Activity (human muscle enolase; Substantive test (W): enolase + methylglyoxal + entanglement elements, incubation time 3 h): 23.4 IU/mg
- Wi / W0 (human muscle enolase; 0 h): 100%
- Wi / W0 (human muscle enolase; 1 h): 88.2%
- Wi / W0 (human muscle enolase; 2 h): 82.5%
- Wi / W0 (human muscle enolase; 3 h): 80.1%
- Wi / K(2)i (human muscle enolase; relative to unmodified enolase control K2 at same time, 0 h): 118.3%
- Wi / K(2)i (human muscle enolase; [1]): 113.2%
- Wi / K(2)i (human muscle enolase; [2]): 117.3%
- Wi / K(2)i (human muscle enolase; [3]): 120.1%
- activity of the glycated enzyme relative to unmodified control test (human muscle enolase; in the presence of entanglement elements, throughout the experiment (0-3 h)): 113%-120
- decrease in specific activity (human muscle enolase; sample K1, after 3 hours of glycation, without entanglement elements): approx. 28%
- AGE of Mw 180 and Mw 230 kDa (enolase; control test, glycation in the absence of entanglement elements (path 2, fig. 6)): observed
- AGE of Mw 180 and Mw 230 kDa (enolase; substantive test treated with entanglement elements (path 1, fig. 6)): observed

Reference: EP4100520B1, “SYSTEM AND METHOD OF TR[…] STATES INFORMATION, […] MACR[…]” (Beznosiuk, Jaroslaw, priority 2020, dated 2021)
